The values below come from US11008572B2, “Methods and compositions for modulating splicing” (SKYHAWK THERAPEUTICS, INC., priority 2017, dated 2021).

The subject of one data set is A673 xenografts. Nature of the data set: A673 xenograft tumor growth inhibition. It is filed as in vivo. The conditions noted are these: immunocompromised nude mice with pre-existing A673 xenografts. How it is done:
Dose range and time course studies comparing anti-neoplastic effects of SMSM-167 and SMSM-151 against vehicle were conducted.
Female NCrNu mice were used. Age range of enrolment was 7-10 weeks. A total of 75animals were for the studies.
The A673 tumor cell line was maintained in vitro as a monolayer culture. […] The cells growing in an exponential growth phase were harvested and counted for tumor inoculation.
Each mouse were inoculated into aright flank with the single cell suspension of 95% viable tumor cells (5×10^6 cells/mouse) in serum-free RPMI 1640 Media for tumor development. Treatments were administered when mean tumor size reached approximately 75 mm^3. […]
Body weight were measured prior to tumor inoculation and prior to the treatment administration and then daily. Tumor size were measured 2-3 times per week in two dimensions using a caliper, and the volume were expressed in mm^3 using the formula: V=0.5×a×b^2 where a and b are the long and short diameters of the tumor, respectively. […]
Studies were performed to assess the effects of in vivo SMSM treatment on glioblastoma, breast, pancreatic, prostate, melanoma, lymphoma and Ewing sarcoma tumors. […] After SMSM treatment, mRNA was isolated from the xenografts and was analyzed by qRT-PCR.
Tumor size was measured 2 times per week in two dimensions using a caliper. […]

The subject of the next data set is A673 cells. Nature of the data set: Dose-response cell proliferation, crystal violet assay, 72 h. Particulars: ratio of IC50 in NHDF cells to IC50 in A673 cells. The data set is classed as cell-based. How it is done: Small molecule splicing modulators were tested in a dose-response assay using A673 cells and NHDF cells.
A673 cells or NHDF cells were first plated in 96-well plastic tissue culture plates (10,000 cells per well). The cells were treated with vehicle alone (DMSO), or increasing concentrations of SMSM compounds for 72 h. Following treatment, cell proliferation was determined using a crystal violet assay. The relative cell proliferation at each concentration was determined.

A short description of data set [1]: Maximum tolerable dose study. The data set is classed as in vivo. Particulars: mice, 3 per group. How it is done:
Survival of mice after administration of SMSMs after 10 or 11 days was assessed.
Tolerance of the drug treatments was determined by measuring the weight of the mice during the period of drug administration. Body weight was measured prior to tumor inoculation and prior to the treatment administration and then daily. The changes in the final weight of the mice for the SMSM treatments were determined.

Some results are limits rather than exact numbers.

Turning to `CN(c1ccc(-c2ccc(-c3cn[nH]c3)cc2O)nn1)[C@@H]1C[C@H]2CCC[C@@H](C1)N2` [compound 160, 2-(6-(((1R,3s,5S)-9-azabicyclo[3.3.1]nonan-3-yl)(methyl)amino)pyridazin-3-yl)-5-(1H-pyrazol-4-yl)phenol], in the data set on A673 xenografts, the “tumor growth inhibition (TGI), in words” value was “led to tumor growth inhibition”.

As for `CN(c1ccc(-c2ccc(-c3cn[nH]c3)cc2O)nn1)[C@H]1C[C@]2(C)CC[C@](C)(C1)N2` [compound 151, 2-(6-(((1R,3s,5S)-1,5-dimethyl-8-azabicyclo[3.2.1]octan-3-yl)(methyl)amino)pyridazin-3-yl)-5-(1H-pyrazol-4-yl)phenol], the “tumor growth inhibition (TGI), in words” value in the data set on A673 xenografts was “led to tumor growth inhibition”. For the same molecule, the “Ratio NHDF/A673 IC50” value in the data set with A673 cells was over 350. Besides, the Outcome result in data set [1] (IP 1 mg/kg QDx11), in data set [1] (PO 10 mg/kg BIDx11) and in data set [1] (PO 10 mg/kg QDx11) was “All survived” in each case.
